Test results from patent publication US20240058460A1, “METHODS AND COMPOUNDS FOR MODULATING HUNTINGTON'S DISEASE” (Design Therapeutics, Inc., priority 2022, published 2024).

Experiments:
[1] = system: human HTT C allele (SNP rs362331C/T) mRNA in GM09197 fibroblasts; assay: HTT mRNA, allele-specific RT-PCR in GM09197 fibroblasts, C allele; assay type: cell-based; details: for GM 09197 E min 48 Hr C Allele (%): lowest % HTT observed at 0.5 nM to 1000 nM compound; for IC50: Homo sapiens, Fibroblast, 48 hr, C allele HTT mRNA normalized to GAPDH, relative to vehicle
Protocol: (§1) Molecular Biology Toolkit: • qPCR primer probe sets: • RNA input normalization was assessed utilizing human glyceraldehyde 3-phosphate dehydrogenase (hGAPDH) TaqMan assay (ThermoFisher cat #4351370) or Human Cyclophillin ([…]) TaqMan assay (ThermoFisher cat #4351372) • Total HTT detection was assessed utilizing human Htt TaqMan assay (ThermoFisher cat #4331182) • Allele-specific detection of human HTT expression in HD cells containing the SNP rs362331C/T (Exon 50): for each assay, allele-specific probes to detect the SNP variant contained locked nucleic acid bases to improve allele discrimination, as compared to unmodified DNA probes. • 362331-F (331 forward primer) • 362331-R (331 reverse primer) • 362331-C probe: TCC CTC ATC+C+AC TGT GT • 362331-T probe: CTC+A+T+C+T+A+C TGT GT • qPCR was performed using Agpath ID one-step reverse transcriptase polymerase chain reaction (RT-PCR) reagent
(§2) Screening of HD molecules methods: GM09197 and/or GM04022 fibroblasts were cultured in T175 flasks incubated at 37° C. and 5% CO2. Once confluency was reached, the media was removed, the cells were washed with 1×PBS, and cells were dissociated using TrypLE™ Express Enzyme. Media was added to the enzyme and collected into a 15-mL conical tube and centrifuged at 500×g for 5 minutes to pellet the cells. Media and enzyme were aspirated using a serological pipette. Cells were resuspended in fresh media and counted using a Countess 3 Automated Cell Counter. Cells were plated at a density of 15,000 cells/well in a tissue culture-treated polystyrene 96-well dish and incubated at 37° C. and 5% CO2 overnight. The next day, media was removed using an 8-channel aspirator. 200 μL media/well are added back into the plate. The molecules are formulated to 1 mM and are dispensed using a Multidrop™ Pico 8 Digital Dispenser. After a 48-hour incubation with compounds, media was removed from plates, cells were washed with 1×PBS, and cells were lysed in 40 μL per well guanidinium thiocyanate buffer. RNA was isolated and purified in […] glass fiber column plates using chaotropic salts. Human mtHTT, wtHTT, and GAPDH mRNA were measured via RT-PCR using the ThermoFisher QuantStudio™ 7 Flex System in 384-well format. Results of HTT levels were normalized to GAPDH mRNA levels. Normalized HTT mRNA levels were expressed relative to vehicle-treated samples to assess fold change after molecule treatment.
(§3) Emin for each compound is the lowest % HTT concentration observed within a compound concentration of 0.5 nM to 1000 nM.

[2] = system: human HTT T allele (SNP rs362331C/T) mRNA in GM09197 fibroblasts; assay: HTT mRNA, allele-specific RT-PCR in GM09197 fibroblasts, T allele; assay type: cell-based; details: for IC50: Homo sapiens, Fibroblast, 48 hr, T allele HTT mRNA normalized to GAPDH, relative to vehicle; for Gm09197 Emin 48 hr T Allele (%): lowest % HTT observed at 0.5 nM to 1000 nM compound
Protocol: as §1, §2, §3

SMILES | GM 09197 E min 48 Hr C Allele (%) [1] | IC50 [2] | Gm09197 Emin 48 hr T Allele (%) [2] | IC50 [1]
CCNS(=O)(=O)c1ccc(Oc2ccc(OCCOCCOCCOCCOCCOCCOCCOCCOCCOCCOCCOCCOCCOCCOCCOCCNC(=O)CCNC(=O)c3nc(NC(=O)c4cc(NC(=O)CCNC(=O)c5nc(NC(=O)CCCNC(=O)c6cc(NC(=O)c7nc(NC(=O)CCNC(=O)c8cc(NC(=O)c9nccn9C)cn8C)cn7C)cn6C)cn5C)cn4C)cn3C)cc2F)c(-c2cn(C)c(=O)c3[nH]ccc23)c1 [Compound A-68] | A (A>90%) | 0.017 µM | C (C<80%) | 
Cc1noc(C)c1-c1ccc2c(c1)nc(CCc1ccc(OCCOCCOCCOCCOCCOCCOCCOCCOCCNC(=O)CCNC(=O)c3nc(NC(=O)c4cc(NC(=O)CCNC(=O)c5nc(NC(=O)CCCNC(=O)c6cc(NC(=O)c7nc(NC(=O)CCNC(=O)c8cc(NC(=O)c9nccn9C)cn8C)cn7C)cn6C)cn5C)cn4C)cn3C)c(Cl)c1)n2C[C@H](C)N1CCOCC1 [Compound A-53] | A (A>90%) | > 1 µM |  | > 1 µM
CC(=O)N1c2ccc(-c3ccn(-c4ccc(OCCOCCOCCOCCOCCOCCOCCOCCOCCOCCOCCOCCOCCOCCOCCOCCNC(=O)CCNC(=O)c5nc(NC(=O)c6cc(NC(=O)CCNC(=O)c7nc(NC(=O)CCCNC(=O)c8cc(NC(=O)c9nc(NC(=O)CCNC(=O)c%10cc(NC(=O)c%11nccn%11C)cn%10C)cn9C)cn8C)cn7C)cn6C)cn5C)cc4)n3)cc2[C@H](Nc2ccc(C#N)cc2)C[C@@H]1C [Compound A-58] |  | > 1 µM |  | > 1 µM
Cn1cc(NC(=O)c2nc(NC(=O)CCNC(=O)c3cc(NC(=O)c4nccn4C)cn3C)cn2C)cc1C(=O)NCCCC(=O)Nc1cn(C)c(C(=O)NCCC(=O)Nc2cc(C(=O)Nc3cn(C)c(C(=O)NCCC(=O)NCCOCCOCCOCCOCCOCCOCCOCCOCCN4C[C@H](Nc5cnn(C)c(=O)c5Br)C[C@H](c5ccccc5)C4)n3)n(C)c2)n1 [Compound A-48] | A (A>90%) | > 1 µM | A (A>90%) | > 1 µM
Cc1sc2c(c1C)C(c1ccc(Cl)cc1)=N[C@@H](CC(=O)Nc1ccc(OCCOCCOCCOCCOCCOCCOCCOCCOCCOCCOCCOCCOCCOCCOCCOCCNC(=O)CCNC(=O)c3nc(NC(=O)c4cc(NC(=O)CCNC(=O)c5nc(NC(=O)NCCNC(=O)c6cc(NC(=O)c7nc(NC(=O)CCNC(=O)c8cc(NC(=O)c9nccn9C)cn8C)cn7C)cn6C)cn5C)cn4C)cn3C)cc1)c1nnc(C)n1-2 [Compound A-75] | A (A>90%) | > 1 µM | A (A>90%) | > 1 µM
CC(=O)Nc1c(F)cc(C(=O)NC2CCC(O)CC2)cc1O[C@@H](C)c1cccc(OCCOCCOCCOCCOCCOCCOCCOCCOCCOCCOCCOCCOCCOCCOCCOCCNC(=O)CCNC(=O)c2nc(NC(=O)c3cc(NC(=O)CCNC(=O)c4nc(NC(=O)CCCNC(=O)c5cc(NC(=O)c6nc(NC(=O)CCNC(=O)c7cc(NC(=O)c8nccn8C)cn7C)cn6C)cn5C)cn4C)cn3C)cn2C)c1 (stereo partly drawn) [Compound A-31] |  | > 1 µM |  | > 1 µM
CCS(=O)(=O)Nc1ccc(Oc2ccc(F)cc2F)c(-c2cn(C)c(=O)c3[nH]c(C(=O)Nc4ccc(OCCOCCOCCOCCOCCOCCOCCOCCOCCNC(=O)c5cc(NC(=O)c6nc(NC(=O)c7cc(NC(=O)[C@@H](N)CCNC(=O)c8nc(NC(=O)CCNC(=O)c9cc(NC(=O)c%10nccn%10C)cn9C)cn8C)cn7C)cn6C)cn5C)cc4)cc23)c1 [Compound A-39] |  | > 1 µM |  | > 1 µM
Cn1cc(NC(=O)c2nc(NC(=O)CCNC(=O)c3cc(NC(=O)c4nccn4C)cn3C)cn2C)cc1C(=O)NCCCC(=O)Nc1cn(C)c(C(=O)NCCC(=O)Nc2cc(C(=O)Nc3cn(C)c(C(=O)NCCC(=O)NCCOCCOCCOCCOCCOCCOCCOCCOCCOCCOCCOCCOCCOCCOCCOCCN4C[C@H](Nc5cnn(C)c(=O)c5Br)C[C@H](c5ccccc5)C4)n3)n(C)c2)n1 [Compound A-49] | A (A>90%) | > 1 µM | A (A>90%) | > 1 µM
CCNC(=O)c1cc2c(-c3cc(S(C)(=O)=O)ccc3Oc3ccc(OCCOCCOCCOCCOCCNC(=O)CCNC(=O)c4nc(NC(=O)c5cc(NC(=O)CCNC(=O)c6nc(NC(=O)CCCNC(=O)c7cc(NC(=O)c8nc(NC(=O)CCNC(=O)c9cc(NC(=O)c%10nccn%10C)cn9C)cn8C)cn7C)cn6C)cn5C)cn4C)cc3F)cn(C)c(=O)c2[nH]1 [Compound A-55] | A (A>90%) | > 1 µM | A (A>90%) | > 1 µM
CCS(=O)(=O)Nc1ccc(Oc2ccc(F)cc2F)c(-c2cn(C)c(=O)c3[nH]c(C(=O)Nc4ccc(OCCOCCOCCOCCOCCOCCOCCOCCOCCOCCOCCOCCOCCOCCOCCOCCNC(=O)CCNC(=O)c5nc(NC(=O)c6cc(NC(=O)CCNC(=O)c7nc(NC(=O)NCCNC(=O)c8cc(NC(=O)c9nc(NC(=O)CCNC(=O)c%10cc(NC(=O)c%11nccn%11C)cn%10C)cn9C)cn8C)cn7C)cn6C)cn5C)cc4)cc23)c1 [Compound A-74] |  | > 1 µM | A (A>90%) | > 1 µM
CC(=O)N1c2ccc(-c3ccn(CCOCCOCCOCCOCCOCCOCCOCCOCCOCCOCCOCCOCCOCCOCCOCCNC(=O)CCNC(=O)c4nc(NC(=O)c5cc(NC(=O)CCNC(=O)c6nc(NC(=O)CCCNC(=O)c7cc(NC(=O)c8nc(NC(=O)CCNC(=O)c9cc(NC(=O)c%10nccn%10C)cn9C)cn8C)cn7C)cn6C)cn5C)cn4C)n3)cc2[C@H](Nc2ccc(C#N)cc2)C[C@@H]1C [Compound A-56] | C (C<80%) | 0.104 µM | C (C<80%) | > 1 µM
CCS(=O)(=O)Nc1ccc(Oc2ccc(F)cc2F)c(-c2cn(C)c(=O)c3[nH]c(C(=O)Nc4ccc(OCCOCCOCCOCCOCCOCCOCCOCCOCCNC(=O)c5cc(NC(=O)c6nc(NC(=O)[C@H](N)CCNC(=O)c7cc(NC(=O)c8nc(NC(=O)CCNC(=O)c9cc(NC(=O)c%10nccn%10C)cn9C)cn8C)cn7C)cn6C)cn5C)cc4)cc23)c1 [Compound A-21] | A (A>90%) | > 1 µM | A (A>90%) | > 1 µM
CC(=O)Nc1c(F)cc(C(=O)N[C@H]2CC[C@H](O)CC2)cc1O[C@@H](C)c1cccc(C(=O)NCCOCCOCCOCCOCCOCCOCCOCCOCCOCCOCCOCCOCCOCCOCCOCCNC(=O)CCNC(=O)c2nc(NC(=O)c3cc(NC(=O)CCNC(=O)c4nc(NC(=O)CCCNC(=O)c5cc(NC(=O)c6nc(NC(=O)CCNC(=O)c7cc(NC(=O)c8nccn8C)cn7C)cn6C)cn5C)cn4C)cn3C)cn2C)c1 [Compound A-32] |  | > 1 µM |  | > 1 µM
CC(=O)N1c2ccc(-c3ccn(-c4ccc(OCCOCCOCCOCCOCCOCCOCCOCCOCCNC(=O)CCNC(=O)c5nc(NC(=O)c6cc(NC(=O)CCNC(=O)c7nc(NC(=O)CCCNC(=O)c8cc(NC(=O)c9nc(NC(=O)CCNC(=O)c%10cc(NC(=O)c%11nccn%11C)cn%10C)cn9C)cn8C)cn7C)cn6C)cn5C)cc4)n3)cc2[C@H](Nc2ccc(C#N)cc2)C[C@@H]1C [Compound A-59] |  | > 1 µM |  | > 1 µM
Cc1sc2c(c1C)C(c1ccc(Cl)cc1)=N[C@@H](CC(=O)Nc1ccc(OCCOCCOCCOCCOCCOCCOCCOCCOCCOCCOCCOCCOCCOCCOCCOCCNC(=O)CCNC(=O)c3nc(NC(=O)c4cc(NC(=O)CCNC(=O)c5nc(NC(=O)OCCNC(=O)c6cc(NC(=O)c7nc(NC(=O)CCNC(=O)c8cc(NC(=O)c9nccn9C)cn8C)cn7C)cn6C)cn5C)cn4C)cn3C)cc1)c1nnc(C)n1-2 [Compound A-73] | A (A>90%) | > 1 µM | A (A>90%) | > 1 µM
Cc1sc2c(c1C)C(c1ccc(Cl)cc1)=N[C@@H](CC(=O)Nc1ccc(OCCOCCOCCOCCOCCOCCOCCOCCOCCOCCOCCOCCOCCOCCOCCOCCNC(=O)c3cc(NC(=O)c4nc(NC(=O)c5cc(NC(=O)[C@@H](N)CCNC(=O)c6nc(NC(=O)CCNC(=O)c7cc(NC(=O)c8nccn8C)cn7C)cn6C)cn5C)cn4C)cn3C)cc1)c1nnc(C)n1-2 [Compound A-38] | A (A>90%) | > 1 µM | A (A>90%) | > 1 µM
